{"source": "patent US20210085640A1", "about": "“ACYLATED CATECHIN POLYPHENOLS AND METHODS OF THEIR USE FOR THE TREATMENT OF CANCER” (Flagship Pioneering Innovations V, Inc., priority 2018, published 2021)", "type_in_all_cases": "cell-based", "key": {"[1]": {"tested_on": "AGS stomach cancer cells", "assay": "Cancer cell survival (CellTiter-Glo), AGS", "design": "Cell survival at given concentration: unit not given here", "how_it_was_run": "(§1)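 Luminescent ATP read-out (CellTiter-Glo) after 72 h compound exposure at 37 C/5% CO2. Survival % is calculated against untreated cells minus medium background, and IC50 is taken from nine concentrations run in triplicate. Plating density was 4×10^3 cells/well with overnight attachment beforehand.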"}, "[2]": {"tested_on": "HCT 116 colorectal cancer cells", "assay": "Cancer cell survival (CellTiter-Glo), HCT 116", "conditions": "HCT 116 cells, 72 h", "how_it_was_run": "as §1"}, "[3]": {"tested_on": "A-431 skin cancer cells", "assay": "Cancer cell survival (CellTiter-Glo), A-431", "design": "Cell survival at given concentration: unit not given here", "conditions": "A-431 cells, 72 h", "how_it_was_run": "as §1"}, "[4]": {"tested_on": "MCF7 breast cancer cells", "assay": "Cancer cell survival (CellTiter-Glo), MCF7", "conditions": "72 h", "how_it_was_run": "as §1"}, "[5]": {"tested_on": "A549 lung cancer cells", "assay": "Cancer cell survival (CellTiter-Glo), A549", "conditions": "72 h", "how_it_was_run": "as §1"}, "[6]": {"tested_on": "T24 bladder cancer cells", "assay": "Cancer cell survival (CellTiter-Glo), T24", "conditions": "72 h", "how_it_was_run": "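Viability by CellTiter-Glo after 72 h compound treatment of T24 bladder cancer cells (4×10^3/well, plated the night before), nine concentration levels in triplicate. Percent survival normalised to untreated cells minus medium background, from which IC50 was determined.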"}, "[7]": {"tested_on": "Daudi lymphoma cancer cells", "assay": "Cancer cell survival (CellTiter-Glo), Daudi", "conditions": "72 h", "how_it_was_run": "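Daudi cells (4×10^3/well) were exposed for 72 h at 37 °C to nine concentrations of compound, added as 10× solutions spanning 1 μM–10 mM (fatty acids) or 100 nM–1 mM (others). CellTiter-Glo luminescence gave % survival versus untreated, medium-blank corrected; IC50 derived.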"}, "[8]": {"tested_on": "PC-3 prostate cancer cells", "assay": "Cancer cell survival (CellTiter-Glo), PC-3", "conditions": "PC-3 cells, 72 h", "how_it_was_run": "as §1"}}, "data": [{"molecule": "CC(O)CCO", "note": "(stereo not drawn) [butanediol]", "values": [{"measurement": "Cell survival at given concentration", "setting": "[1]; 1 μM, Table 10.2", "result": 1.01}, {"measurement": "Cell survival at given concentration", "setting": "[1]; 3 μM, Table 10.2", "result": 1.02}, {"measurement": "Cell survival at given concentration", "setting": "[1]; 10 μM, Table 10.2", "result": 1.03}, {"measurement": "Cell survival at given concentration", "setting": "[1]; 32 μM, Table 10.2", "result": 1.05}, {"measurement": "Cell survival at given concentration", "setting": "[1]; 100 μM, Table 10.2", "result": 1.04}, {"measurement": "Cell survival at given concentration", "setting": "[1]; 317 μM", "result": 1.02}, {"measurement": "Cell survival at given concentration", "setting": "[1]; 1 mM", "result": 1.06}, {"measurement": "Cell survival at given concentration", "setting": "[1]; 3 mM", "result": 1.02}, {"measurement": "Cell survival at given concentration", "setting": "[1]; 10 mM", "result": 0.98}, {"measurement": "Cell survival at given concentration", "setting": "[2]; 1 μM, Table 6.2", "result": 0.98}, {"measurement": "Cell survival at given concentration", "setting": "[2]; 3 μM, Table 6.2", "result": 0.96}, {"measurement": "Cell survival at given concentration", "setting": "[2]; 10 μM, Table 6.2", "result": 0.98}, {"measurement": "Cell survival at given concentration", "setting": "[2]; 32 μM, Table 6.2", "result": 0.97}, {"measurement": "Cell survival at given concentration", "setting": "[2]; 100 μM, Table 6.2", "result": 1.00}, {"measurement": "Cell survival at given concentration", "setting": "[2]; 317 μM", "result": 1.02}, {"measurement": "Cell survival at given concentration", "setting": "[2]; 1 mM", "result": 1.01}, {"measurement": "Cell survival at given concentration", "setting": "[2]; 3 mM", "result": 0.99}, {"measurement": "Cell survival at given concentration", "setting": "[2]; 10 mM", "result": 0.95}, {"measurement": "Cell survival at given concentration", "setting": "[3]; 1 μM, Table 9.2", "result": 1.02}, {"measurement": "Cell survival at given concentration", "setting": "[3]; 3 μM, Table 9.2", "result": 1.03}, {"measurement": "Cell survival at given concentration", "setting": "[3]; 10 μM, Table 9.2", "result": 1.04}, {"measurement": "Cell survival at given concentration", "setting": "[3]; 32 μM, Table 9.2", "result": 1.04}, {"measurement": "Cell survival at given concentration", "setting": "[3]; 100 μM, Table 9.2", "result": 1.03}, {"measurement": "Cell survival at given concentration", "setting": "[3]; 317 μM", "result": 1.04}, {"measurement": "Cell survival at given concentration", "setting": "[3]; 1 mM", "result": 1.02}, {"measurement": "Cell survival at given concentration", "setting": "[3]; 3 mM", "result": 1.02}, {"measurement": "Cell survival at given concentration", "setting": "[3]; 10 mM", "result": 1.01}, {"measurement": "Cell survival at given concentration", "setting": "[4]; 1 μM, Table 5.2", "result": 1.00}, {"measurement": "Cell survival at given concentration", "setting": "[4]; 3 μM, Table 5.2", "result": 0.99}, {"measurement": "Cell survival at given concentration", "setting": "[4]; 10 μM, Table 5.2", "result": 0.98}, {"measurement": "Cell survival at given concentration", "setting": "[4]; 32 μM, Table 5.2", "result": 1.02}, {"measurement": "Cell survival at given concentration", "setting": "[4]; 100 μM, Table 5.2", "result": 1.03}, {"measurement": "Cell survival at given concentration", "setting": "[4]; 317 μM", "result": 1.01}, {"measurement": "Cell survival at given concentration", "setting": "[4]; 1 mM", "result": 1.00}, {"measurement": "Cell survival at given concentration", "setting": "[4]; 3 mM", "result": 0.98}, {"measurement": "Cell survival at given concentration", "setting": "[4]; 10 mM", "result": 0.96}, {"measurement": "Cell survival at given concentration", "setting": "[5]; 1 μM, Table 7.2", "result": 0.95}, {"measurement": "Cell survival at given concentration", "setting": "[5]; 3 μM, Table 7.2", "result": 0.97}, {"measurement": "Cell survival at given concentration", "setting": "[5]; 10 μM, Table 7.2", "result": 1.03}, {"measurement": "Cell survival at given concentration", "setting": "[5]; 32 μM, Table 7.2", "result": 1.01}, {"measurement": "Cell survival at given concentration", "setting": "[5]; 100 μM, Table 7.2", "result": 1.00}, {"measurement": "Cell survival at given concentration", "setting": "[5]; 317 μM", "result": 1.02}, {"measurement": "Cell survival at given concentration", "setting": "[5]; 1 mM", "result": 1.01}, {"measurement": "Cell survival at given concentration", "setting": "[5]; 3 mM", "result": 0.97}, {"measurement": "Cell survival at given concentration", "setting": "[5]; 10 mM", "result": 0.98}, {"measurement": "Cell survival at given concentration", "setting": "[6]; 1 μM, Table 3.2", "result": 1.02}, {"measurement": "Cell survival at given concentration", "setting": "[6]; 3 μM, Table 3.2", "result": 1.03}, {"measurement": "Cell survival at given concentration", "setting": "[6]; 10 μM, Table 3.2", "result": 0.99}, {"measurement": "Cell survival at given concentration", "setting": "[6]; 32 μM, Table 3.2", "result": 1.00}, {"measurement": "Cell survival at given concentration", "setting": "[6]; 100 μM, Table 3.2", "result": 1.01}, {"measurement": "Cell survival at given concentration", "setting": "[6]; 317 μM", "result": 1.03}, {"measurement": "Cell survival at given concentration", "setting": "[6]; 1 mM", "result": 1.02}, {"measurement": "Cell survival at given concentration", "setting": "[6]; 3 mM", "result": 1.00}, {"measurement": "Cell survival at given concentration", "setting": "[6]; 10 mM", "result": 1.00}, {"measurement": "Cell survival at given concentration", "setting": "[7]; 1 μM, Table 4.2", "result": 0.98}, {"measurement": "Cell survival at given concentration", "setting": "[7]; 3 μM, Table 4.2", "result": 0.97}, {"measurement": "Cell survival at given concentration", "setting": "[7]; 10 μM, Table 4.2", "result": 0.97}, {"measurement": "Cell survival at given concentration", "setting": "[7]; 32 μM, Table 4.2", "result": 0.98}, {"measurement": "Cell survival at given concentration", "setting": "[7]; 100 μM, Table 4.2", "result": 1.00}, {"measurement": "Cell survival at given concentration", "setting": "[7]; 317 μM", "result": 1.01}, {"measurement": "Cell survival at given concentration", "setting": "[7]; 1 mM", "result": 1.00}, {"measurement": "Cell survival at given concentration", "setting": "[7]; 3 mM", "result": 1.00}, {"measurement": "Cell survival at given concentration", "setting": "[7]; 10 mM", "result": 1.00}, {"measurement": "Cell survival at given concentration", "setting": "[8]; 1 μM, Table 8.2", "result": 1.00}, {"measurement": "Cell survival at given concentration", "setting": "[8]; 3 μM, Table 8.2", "result": 0.99}, {"measurement": "Cell survival at given concentration", "setting": "[8]; 10 μM, Table 8.2", "result": 1.03}, {"measurement": "Cell survival at given concentration", "setting": "[8]; 32 μM, Table 8.2", "result": 1.02}, {"measurement": "Cell survival at given concentration", "setting": "[8]; 100 μM, Table 8.2", "result": 1.00}, {"measurement": "Cell survival at given concentration", "setting": "[8]; 317 μM", "result": 1.02}, {"measurement": "Cell survival at given concentration", "setting": "[8]; 1 mM", "result": 0.97}, {"measurement": "Cell survival at given concentration", "setting": "[8]; 3 mM", "result": 0.98}, {"measurement": "Cell survival at given concentration", "setting": "[8]; 10 mM", "result": 0.96}]}]}
